Reference: US11724999B2, “Inhibitors of RAS-effector protein interactions” (Oxford University Innovation Limited, priority 2018, dated 2023)

Tests used:
[1] = system: DLD1 cells (ATCC CCL-221); assay: Cell viability assay (CellTiter-Glo), DLD1 cells; format: cell-based; conditions: Homo sapiens, DLD-1 cells, 48 h incubation, second value of the cell, read-out: Cell Viability (μM) DLD-1 (concentration that decreases cell viability by 50%)
Procedure: (§1) Cells (A549 ATCC CCL-185) are cultured in Dulbecco's Modified Eagle's Medium plus 10% foetal calf serum and 2 mM L-glutamine at 37° C., 5% CO2. Cells are plated onto white clear bottom 96-well plates (5000 cells/well in 200 μl media) and left to adhere overnight at 37° C., 5% CO2. Next day, test compound (1 μl at 200× concentration in 100% DMSO) is added to give final test compound concentration 1× in 0.5% DMSO. After 48 h of incubation at 37° C., 5% CO2, 20 μl CellTiter-Glo reagent (Promega G7572) is added into each well. Plates are incubated at room temperature with shaking for 30 min and then luminescence is read using a PheraStar plate reader. The concentration of compounds that decrease cell viability by 50% is calculated from dose response curves generated using Dotmatics data analysis software.
In the DLD1 cell assay, cells (ATCC CCL-221) are cultured in RPMI-1640 medium plus 10% foetal calf serum and 2 mM L-glutamine at 37° C., 5% CO2.

[2] = system: H358 cells (ATCC CRL-5807); assay: Cell viability assay (CellTiter-Glo), H358 cells; format: cell-based; conditions: Homo sapiens, NCI-H358, 48 h incubation, first value of the cell, read-out: Cell Viability (μM) H358 (concentration that decreases cell viability by 50%)
Procedure: as §1
In the H358 cell assay, cells (ATCC CRL-5807) are cultured in RPM-1640 medium plus 10% foetal calf serum and 2 mM L-glutamine at 37° C., 5% CO2.

[3] = target: T1, GST-human KRas166 (G12V) GPPNHP (Homo sapiens, UniProt P01116, G12V); assay: KRas small-molecule screening by SPR (BIACORE T200); format: binding; conditions: compound at final concentration of 100 uM; immobilised GST-KRAS166 (G12V) GPPNHP, GST reference channel
T1 construct: made in house; host or cells: E. coli C41(DE3)
Procedure: For SPR assays pGEX-KRAS(G12V) plasmid was transformed into E. coli C41(DE3). Bacterial cells were cultured at 37° C. to an OD600 of 0.6 and induced with IPTG (final 0.1 mM) at 18° C. overnight. The GST fusion proteins were extracted from bacteria pellets after cell disruption in 140 mM NaCl, 2.7 mM KCl, […], 1.8 mM KH2PO4, 1 mM EDTA, 2 mM MgCl2 pH 7.4 and purified by glutathione-sepharose column chromatography (GE Healthcare), eluting with 50 mM Tris-HCl pH8.0, 10 mM reduced glutathione, 1 mM DTT, 2 mM MgC2. The eluted proteins were dialysed against 50 mM Tris-HCl pH8.0, 1 mM DTT, 2 mM MgCl2 and concentrated to 10 mg/ml using a Biomax-30 […]-15 centrifugal filter device (Millipore). Purified KRAS protein was loaded with GPPNHP as described elsewhere (Pacold et al., 2000). Loaded protein was then purified by gel filtration on a HiLoad Superdex-75 HR column (GE Healthcare) in 1×PBS pH7.4, 5 mM MgCl2 and concentrated for storage.
To a previously immobilized CM5 chip (GE Healthcare BR-1005-30) with anti GST antibody via amine coupling method, GST in channel 1 and GST-human KRas166 (G12V) GPPNHP in channel 2 were immobilised. GST was immobilised between 2,000 and 5,000 Response units. KRAS166 (G12V) was immobilized between 10,000 to 15,000 Response Units.
In a 96 well plate, compounds were diluted in […], 5 mM MgCl2 and 5% DMSO Buffer to a final concentration of 100 uM. DCAI was used as positive control. Experiment also included a solvent correction curve for 5% DMSO. Screening and evaluation of the protein immobilization and the compounds screening was done accordingly to the BIACORE T200 control and evaluation software.
Protein immobilisation: 10,000 RU; average fragment 300 Da in size. Rmax=(MWA/MWL)×RL×SM MWA is the molecular weight of the analyte in Da MWL is the molecular weight of the ligand in Da RL is the immobilization level in RU SM is the molar stoichiometry (assume 1:1) Rmax=300/47,500×10,000×1 Rmax=63 RU. Cell Viability Assay protocols

| SMILES | IC50 [1] [µM] | IC50 [2] [µM] | SPR Response Units [3] [Response Units] |
| --- | --- | --- | --- |
| NCC(=O)N[C@H]1CC[C@@H](NC(=O)C2COc3ccc(OCc4ccccc4)cc3O2)CC1 (stereo partly shown) [Example 85, 7-Benzyloxy-2,3-dihydro-benzo[1,4]dioxine-2-carboxylic acid [4-(2-amino-acetylamino)-cyclohexyl]-amide] | 10 | > 100 | 64 |
| CC(C)(C)OC(=O)NCc1ccc(CN(C[C@@H]2COc3ccc(OCc4ccccc4)cc3O2)C(=O)c2ncco2)cc1 [Example 41, (4-{[((R)-7-Benzyloxy-2,3-dihydro-benzo[1,4]dioxin-2-ylmethyl)-(oxazole-2-carbonyl)-amino]-methyl}-benzyl)-carbamic acid tert-butyl ester] | 16 | 74 | 7 |
| Cc1ccc(COc2ccc3c(c2)O[C@H](CNC(=O)C2CCN(C)CC2)CO3)cc1 [Example 29, 1-Methyl-piperidine-4-carboxylic acid [(R)-7-(4-methyl-benzyloxy)-2,3-dihydro-benzo[1,4]dioxin-2-ylmethyl]-amide] | 6.8 | 12.5 | 37 |
| Cc1cccc(COc2ccc3c(c2)O[C@H](CNC(=O)C2CCN(C)CC2)CO3)c1 [Example 28, 1-Methyl-piperidine-4-carboxylic acid [(R)-7-(3-methyl-benzyloxy)-2,3-dihydro-benzo[1,4]dioxin-2-ylmethyl]-amide] | 8.2 | 16.6 | 39 |
| CN1CCC(C(=O)NC[C@@H]2COc3ccc(OCc4cccc(Cl)c4)cc3O2)CC1 [Example 30, 1-Methyl-piperidine-4-carboxylic acid [(R)-7-(3-chloro-benzyloxy)-2,3-dihydro-benzo[1,4]dioxin-2-ylmethyl]-amide] | 3.9 | 16.2 | 64 |
| c1ccc(COc2ccc3c(c2)O[C@H](CNC2CCNCC2)CO3)cc1 [Example 45, ((R)-7-Benzyloxy-2,3-dihydro-benzo[1,4]dioxin-2-ylmethyl)-piperidin-4-yl-amine] | 9.6 | 26.3 | 22 |
| Cc1ccccc1COc1ccc2c(c1)O[C@H](CNC(=O)C1CCN(C)CC1)CO2 [Example 32, 1-Methyl-piperidine-4-carboxylic acid [(R)-7-(2-methyl-benzyloxy)-2,3-dihydro-benzo[1,4]dioxin-2-ylmethyl]-amide] | 15.9 | 26.2 | 37 |
| CN1CCC(COc2ccc3c(c2)O[C@H](CNC(=O)c2ncco2)CO3)CC1 [Example 21, Oxazole-2-carboxylic acid [(R)-7-(1-methyl-piperidin-4-ylmethoxy)-2,3-dihydro-benzo[1,4]dioxin-2-ylmethyl]-amide] | – | – | 9 |
| O=C1CC(CNC(=O)C2COc3ccc(OCc4ccccc4)cc3O2)CCN1 (stereo not shown) [Example 71, 7-Benzyloxy-2,3-dihydro-benzo[1,4]dioxine-2-carboxylic acid (2-oxo-piperidin-4-ylmethyl)-amide] | – | – | 7 |

Further lines, results first:

| IC50 [1] [µM] | IC50 [2] [µM] | SPR Response Units [3] [Response Units] | SMILES |
| --- | --- | --- | --- |
| 13.8 | 14.7 | – | c1ccc(COc2ccc3c(c2)O[C@H](CNCC2CCCNC2)CO3)cc1 (stereo partly drawn) [Example 58, ((R)-7-Benzyloxy-2,3-dihydro-benzo[1,4]dioxin-2-ylmethyl)-piperidin-3-ylmethyl-amine] |
| 12 | 57 | 66 | CN1CCN(Cc2cnc(C(=O)NC[C@@H]3COc4ccc(OCc5ccccc5)cc4O3)o2)CC1 [Example 4, 5-(4-Methyl-piperazin-1-ylmethyl)-oxazole-2-carboxylic acid ((R)-7-benzyloxy-2,3-dihydro-benzo[1,4]dioxin-2-ylmethyl)-amide] |
| 2 | 16 | 75 | CN1CCC(CNC[C@@H]2COc3ccc(OCc4ccccc4)cc3O2)CC1 [Example 46, ((R)-7-Benzyloxy-2,3-dihydro-benzo[1,4]dioxin-2-ylmethyl)-(1-methyl-piperidin-4-ylmethyl)-amine] |
| 15 | > 100 | 70 | O=c1ccccn1CCN1CCN(C[C@@H]2COc3ccc(OCc4ccccc4)cc3O2)CC1 [Example 52, 1-{2-[4-((R)-7-Benzyloxy-2,3-dihydro-benzo[1,4]dioxin-2-ylmethyl)-piperazin-1-yl]-ethyl}-1H-pyridin-2-one] |
| 13 | 61 | 48 | CN1CCC(C(=O)NC[C@@H]2COc3ccc(OCc4ccccc4)cc3O2)CC1 [Example 1, 1-methyl-piperidine-4-carboxylic acid ((R)-7-benzyloxy-2,3-dihydro-benzo[1,4]dioxin-2-ylmethyl)-amide] |
| 18 | > 100 | – | c1ccc(COc2ccc3c(c2)O[C@H](CNCC2CCOCC2)CO3)cc1 [Example 33, ((R)-7-Benzyloxy-2,3-dihydro-benzo[1,4]dioxin-2-ylmethyl)-(tetrahydro-pyran-4-ylmethyl)-amine] |
| 10 | 43 | 224 | CN1CCN(Cc2ccc(C(=O)NC[C@@H]3COc4ccc(OCc5ccccc5)cc4O3)o2)CC1 [Example 2, 5-(4-Methyl-piperazin-1-ylmethyl)-furan-2-carboxylic acid ((R)-7-benzyloxy-2,3-dihydro-benzo[1,4]dioxin-2-ylmethyl)-amide] |
| 5 | 8 | – | CN1CCN(c2cccc(CNC[C@@H]3COc4ccc(OCc5ccccc5)cc4O3)c2)CC1 [Example 53, ((R)-7-Benzyloxy-2,3-dihydro-benzo[1,4]dioxin-2-ylmethyl)-[3-(4-methyl-piperazin-1-yl)-benzyl]-amine] |
| 7 | 42 | 93 | CN1CCN(Cc2cccc(CNC(=O)C3COc4ccc(OCc5ccccc5)cc4O3)c2)CC1 (stereo not shown) [Example 62, 7-Benzyloxy-2,3-dihydro-benzo[1,4]dioxine-2-carboxylic acid 3-(4-methyl-piperazin-1-ylmethyl)-benzylamide] |
| 10.5 | 19.2 | – | CN1CCN(Cc2cccc(C(=O)NC[C@@H]3COc4ccc(OCc5ccccc5)cc4O3)c2)CC1 [Example 7, N-((R)-7-Benzyloxy-2,3-dihydro-benzo[1,4]dioxin-2-ylmethyl)-3-(4-methyl-piperazin-1-ylmethyl)-benzamide] |
| – | – | 24 | c1ccc(COc2ccc3c(c2)O[C@H](CNC2CCc4ccccc42)CO3)cc1 (stereo partly drawn) [Example 48, ((R)-7-Benzyloxy-2,3-dihydro-benzo[1,4]dioxin-2-ylmethyl)-indan-1-yl-amine] |
| – | – | 75 | CN1CCC(N(C)C(=O)NC[C@@H]2COc3ccc(OCc4ccccc4)cc3O2)CC1 [Example 81, 3-(7-Benzyloxy-2,3-dihydro-benzo[1,4]dioxin-2-ylmethyl)-1-methyl-1-(1-methyl-piperidin-4-yl)-urea] |
| – | – | 29 | c1ccc(COc2ccc3c(c2)O[C@H](CNCC2COCCN2)CO3)cc1 (stereo partly drawn) [Example 57, ((R)-7-Benzyloxy-2,3-dihydro-benzo[1,4]dioxin-2-ylmethyl)-morpholin-3-ylmethyl-amine] |
